Test results reported in patent publication US6472348B1, “Pyridone derivatives and herbicides” (Kumiai Chemical Industry Co., Ltd., priority 1996, dated 2002).

How the values were obtained:
pale smartweed (Po) [1] = test: Test Example 9: crop plant selectivity by upland field foliage treatment (wheat), herbicidal effects; assay type: in vivo; set-up: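 grade of growth control; 5 = at least 90%; 4 = 70 to 90%; 3 = 50 to 70%; 2 = 30 to 50%; 1 = 10 to 30%; 0 = under 10%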; conditions: dose 1.6 g ai/10a, 14th day after treatment
Outline: (§1)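 Sand-filled pot, wheat + weeds co-sown; greenhouse 2 wk, then foliage treatment; greenhouse culture continued; visual scoring of weed control and crop injury at 14 d post-treatment per grading scale.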

slender amaranth (Am) [2] = test: as above; assay type: in vivo; set-up: scale not given here; conditions: dose 1.6 g ai/10a, 14th day after treatment
Outline: as §1

China jute (Ab) = test: as above; assay type: in vivo; set-up: scale not given here; conditions: dose 1.6 g ai/10a, 14th day after treatment
Outline: as §1

[3] = tested on: common lambsquarters (Ch); test: as above; assay type: in vivo; set-up: scale not given here; conditions: dose 1.6 g ai/10a, 14th day after treatment
Outline: as §1

[4] = tested on: common lambsquarters (Ch); test: Test Example 4: crop plant selectivity by upland field soil treatment (cotton), herbicidal effects; assay type: in vivo; set-up: scale not given here; conditions: evaluated 21st day after application
Outline: (§2)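 Weeds and cotton, sown in sand and topped with soil, received a soil-applied treatment. Evaluation after three weeks in a greenhouse followed a standard rating scale.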

pale smartweed (Po) [5] = test: Test Example 5: crop plant selectivity by upland field soil treatment (wheat), herbicidal effects; assay type: in vivo; set-up: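 grade of growth control; 5 = at least 90%; 4 = 70 to 90%; 3 = 50 to 70%; 2 = 30 to 50%; 1 = 10 to 30%; 0 = under 10%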; conditions: 21st day after application
Outline: (§3)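 Upland soil-treatment selectivity test: crop and weed seeds are sown together in sand-filled pots, soil-covered, then treated and grown under glass until rating at 21 days.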

green foxtail (Se) = test: as above; assay type: in vivo; set-up: scale not given here; conditions: 21st day after application
Outline: as §3

slender amaranth (Am) [6] = test: as above; assay type: in vivo; set-up: scale not given here; conditions: 21st day after application
Outline: as §3

[7] = tested on: common lambsquarters (Ch); test: as above; assay type: in vivo; set-up: scale not given here; conditions: 21st day after application
Outline: as §3

corn (Ze) = test: Test Example 11: crop plant selectivity by upland field foliage treatment (corn), phytotoxicity; conditions: dose 1.6 g ai/10a
Outline: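 Corn with pale smartweed, slender amaranth, common lambsquarters and China jute sown in sand-filled pots and grown 2 weeks in a greenhouse before foliage treatment. Herbicidal effect and crop phytotoxicity scored on day 14 after treatment against a rating standard.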

cotton (Go) = test: Test Example 4: crop plant selectivity by upland field soil treatment (cotton), phytotoxicity; assay type: in vivo; set-up: scale not given here; conditions: evaluated 21st day after application
Outline: as §2

[8] = upland field foliage treatment, 14th day after treatment

| SMILES | Herbicidal effects Po (pale smartweed (Po) [1]) | Herbicidal effects Am (slender amaranth (Am) [2]) | Herbicidal effects Ab (China jute (Ab)) | Herbicidal effects Ch [3] | Herbicidal effects Ch ([4]; dose 1.6 g ai/10 a) | Herbicidal effects Ch ([4]; dose 6.3 g ai/10 a) | Herbicidal effects Po (pale smartweed (Po) [5]; dose 1.6 g ai/10a) | Herbicidal effects Po (pale smartweed (Po) [5]; dose 6.3 g ai/10a) | Herbicidal effects Se (green foxtail (Se); dose 1.6 g ai/10a) | Herbicidal effects Se (green foxtail (Se); dose 6.3 g ai/10a) | Herbicidal effects Am (slender amaranth (Am) [6]; dose 1.6 g ai/10a) | Herbicidal effects Am (slender amaranth (Am) [6]; dose 6.3 g ai/10a) | Herbicidal effects Ch ([7]; dose 1.6 g ai/10a) | Herbicidal effects Ch ([7]; dose 6.3 g ai/10a) | Phytotoxicity Ze (corn (Ze); [8]) | Phytotoxicity Go (cotton (Go); dose 1.6 g ai/10 a) | Phytotoxicity Go (cotton (Go); dose 6.3 g ai/10 a) | Phytotoxicity Ze (corn (Ze); corn, foliage treatment, evaluated on 14th day after treatment, index per Table 47) |
| --- | --- | --- | --- | --- | --- | --- | --- | --- | --- | --- | --- | --- | --- | --- | --- | --- | --- | --- |
| C=CCOc1cc(-c2ccc(C(F)(F)F)n(C)c2=O)c(F)cc1Cl [1-16] | 5 | 5 | 5 | 5 | 5 | 5 | 5 | 5 | 5 | 5 | 5 | 5 | 5 | 5 | 2 | 0 | 0 |  |
| CCOCOc1cc(-c2ccc(C(F)(F)F)n(C)c2=O)c(F)cc1Cl [1-181] | 5 | 5 | 5 | 5 |  | 5 |  | 5 |  | 5 |  | 5 |  | 5 | 2 |  | 0 |  |
| C=CC(C)Oc1cc(-c2ccc(C(F)(F)F)n(C)c2=O)c(F)cc1Cl (stereo not shown) [Compound 1-182] | 5 | 5 | 5 | 5 |  | 5 |  | 5 |  | 5 |  | 5 |  | 5 | 1 |  | 0 |  |
| C#CCOc1cc(-c2ccc(C(F)(F)F)n(C)c2=O)c(Cl)cc1Cl [1-30] | 5 | 5 | 5 | 5 | 5 | 5 | 5 |  | 5 |  | 5 |  | 5 |  | 2 | 0 | 1 |  |
| CSCOc1cc(-c2ccc(C(F)(F)F)n(C)c2=O)c(F)cc1Cl [Compound 1-208] | 5 | 5 | 5 | 5 |  | 5 |  | 4 |  | 5 |  | 5 |  | 5 | 2 |  | 1 |  |
| CCOC(=O)c1cc(-c2ccc(C(F)(F)F)n(C)c2=O)c(F)cc1Cl [1-65] | 5 | 5 | 5 | 5 | 5 | 5 | 5 | 5 | 5 | 5 | 5 | 5 | 5 | 5 | 2 | 0 | 0 |  |
| C=CCN1C(=O)COc2cc(Cl)c(-c3ccc(C(F)(F)F)n(C)c3=O)cc21 [Compound 2-26] | 5 | 5 | 5 | 5 |  | 5 |  | 5 |  | 5 |  | 5 |  | 5 | 2 |  | 1 |  |
| COc1cc(-c2ccc(C(F)(F)F)n(N)c2=O)c(F)cc1Cl [1-179] | 5 | 5 | 5 | 5 |  | 5 |  | 5 |  | 5 |  | 5 |  | 5 | 1 |  | 0 |  |
| Cn1c(C(F)(F)F)ccc(-c2c(F)cc(Cl)c3occc23)c1=O [Compound No. 4-28, 3-(7-chloro-5-fluorobenzofuran-4-yl)-1-methyl-6-trifluoromethyl-2-(1H)-pyridone] | 5 | 5 | 5 | 5 | 5 | 5 |  | 5 |  | 5 |  | 5 |  | 5 | 2 | 0 | 1 |  |
| CCCc1cc2c(-c3ccc(C(F)(F)F)n(C)c3=O)c(F)cc(Cl)c2o1 [Compound 4-3] | 5 | 5 | 5 | 5 |  | 5 |  | 5 |  | 5 |  | 5 |  | 5 | 2 |  | 0 |  |
| C=CC(O)c1cc(-c2ccc(C(F)(F)F)n(C)c2=O)c(F)cc1Cl (stereo not shown) [Compound 1-197] | 5 | 5 | 5 | 5 |  | 5 |  | 5 |  | 5 |  | 5 |  | 5 | 2 |  | 1 |  |
| CCON=Cc1cc(-c2ccc(C(F)(F)F)n(C)c2=O)c(F)cc1Cl [Compound 1-187] | 5 | 5 | 5 | 5 |  | 5 |  | 5 |  | 5 |  | 5 |  | 5 | 2 |  | 0 |  |
| C#CCOc1cc(-c2ccc(C(F)(F)F)n(N)c2=O)c(F)cc1Cl [1-178] | 5 | 5 | 5 | 5 | 5 | 5 | 5 |  | 5 |  | 5 |  | 5 |  | 2 | 1 | 1 |  |
| CCc1cc2c(Cl)cc(F)c(-c3ccc(C(F)(F)F)n(C)c3=O)c2o1 [Compound 5-2] | 5 | 5 | 5 | 5 |  | 5 |  | 5 |  | 5 |  | 5 |  | 5 |  |  | 1 | 2 |
| CCCC(=O)c1cc(-c2ccc(C(F)(F)F)n(C)c2=O)c(F)cc1Cl [Compound No. 1-194, 3-[4-chloro-2-fluoro-5-(1-oxobutyl)phenyl]-1-methyl-6-trifluoromethyl-2(1H)-pyridone] | 5 | 5 | 5 | 5 |  | 5 |  | 5 |  | 5 |  | 5 |  | 5 | 1 |  | 1 |  |
| C#CC(C)Oc1cc(Cl)cc(F)c1-c1ccc(C(F)(F)F)n(C)c1=O (stereo not shown) [1′-5] | 5 | 5 | 5 | 5 | 5 | 5 | 5 | 5 | 4 | 5 | 5 | 5 | 5 | 5 | 1 | 0 | 0 |  |
| Cn1c(C(F)(F)F)ccc(-c2c(F)cc(Cl)c3oc(CO)cc23)c1=O [Compound No. 4-5, 3-(7-chloro-5-fluoro-2-hydroxymethylbenzofuran-4-yl)-1-methyl-6-trifluoromethyl-2-(1H)-pyridone] | 5 | 5 | 5 | 5 |  | 5 |  | 5 |  | 5 |  | 5 |  | 5 | 1 |  | 2 |  |
| Cn1c(C(F)(F)F)ccc(-c2cc(OCCCl)c(Cl)cc2F)c1=O [1-171] | 5 | 5 | 5 | 5 |  | 5 |  | 5 |  | 5 |  | 5 |  | 5 | 1 |  | 0 |  |
| CCOC(=O)CON=Cc1cc(-c2ccc(C(F)(F)F)n(C)c2=O)c(F)cc1Cl [Compound 1-191] | 5 | 5 | 5 | 5 |  | 5 |  | 5 |  | 5 |  | 5 |  | 5 | 2 |  | 1 |  |
| C#CCN1C(=O)COc2cc(Cl)c(-c3ccc(C(F)(F)F)n(C)c3=O)cc21 [Compound 2-25] | 5 | 5 | 5 | 5 | 5 | 5 | 5 | 5 | 5 | 5 | 5 | 5 | 5 | 5 | 2 | 0 | 0 |  |
